Measurements taken from patent US8309718B2, “4-pyrazolyl-N-arylpyrimidin-2-amines and 4-pyrazolyl-N-heteroarylpyrimidin-2-amines as janus kinase inhibitors” (Incyte Corporation, priority 2007, dated 2012).

Target: T1, human JAK2 (Homo sapiens, UniProt O60674)
T1 construct: JAK2 (a.a. 828-1132); His tag (N); made in house; host or cells: insect cells (baculovirus)
Assay: In vitro JAK kinase assay (HTRF, phosphorylation of biotinylated peptide)
Format: biochemical
Details: catalytic domain a.a. 828-1132, 30 μM ATP, 500 nM peptide, room temperature 1 hr; read-out: JAK-2 IC50
How it was run: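 His-tagged human JAK2 catalytic domain (a.a. 828-1132), baculovirus/insect-cell expressed; phosphorylation of 500 nM biotinylated peptide at 30 μM ATP in 50 mM Tris pH 7.8, 100 mM NaCl, 5 mM DTT, 0.01% BSA. 1 h at room temperature, EDTA stop, HTRF read (Eu-Py20/SA-APC); IC50.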

T1 sequence (O60674 828-1132): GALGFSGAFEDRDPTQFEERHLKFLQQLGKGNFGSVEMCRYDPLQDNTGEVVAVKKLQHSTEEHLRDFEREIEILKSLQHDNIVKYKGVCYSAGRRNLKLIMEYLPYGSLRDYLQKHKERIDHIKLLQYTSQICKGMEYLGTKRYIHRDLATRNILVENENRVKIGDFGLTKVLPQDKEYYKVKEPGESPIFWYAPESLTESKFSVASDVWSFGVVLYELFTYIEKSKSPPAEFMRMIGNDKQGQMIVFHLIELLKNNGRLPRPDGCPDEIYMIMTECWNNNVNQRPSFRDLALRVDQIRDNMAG

IC50, < 100 nM:
N#CCC(C1CCCC1)n1cc(-c2ccnc(Nc3cccc(C(=O)N4CCOCC4)c3)n2)cn1 (racemic) [Example 147, 3-cyclopentyl-3-(4-(2-(3-(morpholine-4-carbonyl)phenylamino)pyrimidin-4-yl)-1H-pyrazol-1-yl)propanenitrile]
Cc1cc(CNC(=O)c2cccc(Nc3nccc(-c4cnn(C(CC#N)C5CCCC5)c4)n3)c2)no1 (racemic) [Example 148, 3-(4-(1-(2-cyano-1-cyclopentylethyl)-1H-pyrazol-4-yl)pyrimidin-2-ylamino)-N-((5-methylisoxazol-3-yl)methyl)benzamide]
N#CCC(C1CCCC1)n1cc(-c2ccnc(Nc3cccc(C(=O)N4CCC(O)(c5ccccc5)CC4)c3)n2)cn1 (racemic) [Example 150, 3-cyclopentyl-3-(4-(2-(3-(4-hydroxy-4-phenylpiperidine-1-carbonyl)phenylamino)pyrimidin-4-yl)-1H-pyrazol-1-yl)propanenitrile]
N#CCC(C1CCCC1)n1cc(-c2ccnc(Nc3cccc(C(=O)N4CCC(O)(Cc5ccccc5)CC4)c3)n2)cn1 (racemic) [Example 151, 3-(4-(2-(3-(4-benzyl-4-hydroxypiperidine-1-carbonyl)phenylamino)pyrimidin-4-yl)-1H-pyrazol-1-yl)-3-cyclopentylpropanenitrile]
N#CCC(C1CCCC1)n1cc(-c2ccnc(Nc3cccc(C(=O)NCC4CCOCC4)c3)n2)cn1 (racemic) [Example 153, 3-(4-(1-(2-cyano-1-cyclopentylethyl)-1H-pyrazol-4-yl)pyrimidin-2-ylamino)-N-((tetrahydro-2H-pyran-4-yl)methyl)benzamide]
CN1CCC(NC(=O)c2cccc(Nc3nccc(-c4cnn(C(CC#N)C5CCCC5)c4)n3)c2)CC1 (racemic) [Example 154, 3-(4-(1-(2-cyano-1-cyclopentylethyl)-1H-pyrazol-4-yl)pyrimidin-2-ylamino)-N-(1-methylpiperidin-4-yl)benzamide]
N#CCC(C1CCCC1)n1cc(-c2ccnc(Nc3cccc(C(=O)N4CCC(c5ccccc5)CC4)c3)n2)cn1 (racemic) [Example 155, 3-cyclopentyl-3-(4-(2-(3-(4-phenylpiperidine-1-carbonyl)phenylamino)pyrimidin-4-yl)-1H-pyrazol-1-yl)propanenitrile]
N#CCC(C1CCCC1)n1cc(-c2ccnc(Nc3cccc(C(=O)N4CCN(c5ncccn5)CC4)c3)n2)cn1 (racemic) [Example 160, 3-cyclopentyl-3-(4-(2-(3-(4-(pyrimidin-2-yl)piperazine-1-carbonyl)phenylamino)pyrimidin-4-yl)-1H-pyrazol-1-yl)propanenitrile]
N#CCC(C1CCCC1)n1cc(-c2ccnc(Nc3cccc(C(=O)NCCc4cccnc4)c3)n2)cn1 (racemic) [Example 161, 3-(4-(1-(2-cyano-1-cyclopentylethyl)-1H-pyrazol-4-yl)pyrimidin-2-ylamino)-N-(2-(pyridin-3-yl)ethyl)benzamide]
COc1ccccc1CNC(=O)c1cccc(Nc2nccc(-c3cnn(C(CC#N)C4CCCC4)c3)n2)c1 (racemic) [Example 163, 3-(4-(1-(2-cyano-1-cyclopentylethyl)-1H-pyrazol-4-yl)pyrimidin-2-ylamino)-N-(2-methoxybenzyl)benzamide]
N#CCC(C1CCCC1)n1cc(-c2ccnc(Nc3cccc(C(=O)N4CCC(Oc5ccccc5)CC4)c3)n2)cn1 (racemic) [Example 164, 3-cyclopentyl-3-(4-(2-(3-(4-phenoxypiperidine-1-carbonyl)phenylamino)pyrimidin-4-yl)-1H-pyrazol-1-yl)propanenitrile]
N#CCC(C1CCCC1)n1cc(-c2ccnc(Nc3cccc(C(=O)NC4(CO)CCCC4)c3)n2)cn1 (racemic) [Example 165, 3-(4-(1-(2-cyano-1-cyclopentylethyl)-1H-pyrazol-4-yl)pyrimidin-2-ylamino)-N-(1-(hydroxymethyl)cyclopentyl)benzamide]
N#CCC(C1CCCC1)n1cc(-c2ccnc(Nc3cccc(C(=O)N4CCN(c5ccc(C#N)cc5)CC4)c3)n2)cn1 (racemic) [Example 166, 4-(4-(3-(4-(1-(2-cyano-1-cyclopentylethyl)-1H-pyrazol-4-yl)pyrimidin-2-ylamino)benzoyl)piperazin-1-yl)benzonitrile]
N#CCC(C1CCCC1)n1cc(-c2ccnc(Nc3cccc(C(=O)N4CCN(c5ccccc5)CC4)c3)n2)cn1 (racemic) [Example 168, 3-cyclopentyl-3-(4-(2-(3-(4-phenylpiperazine-1-carbonyl)phenylamino)pyrimidin-4-yl)-1H-pyrazol-1-yl)propanenitrile]
N#CCC(C1CCC1)n1cc(-c2ccnc(Nc3ccc(N4CCOCC4)cc3)n2)cn1 (racemic) [Example 171, 3-cyclobutyl-3-(4-(2-(4-morpholinophenylamino)pyrimidin-4-yl)-1H-pyrazol-1-yl)propanenitrile]
N#CCC(C1CCC1)n1cc(-c2ccnc(Nc3ccc(-n4cccn4)cc3)n2)cn1 (racemic) [Example 173, 3-(4-(2-(4-(1H-pyrazol-1-yl)phenylamino)pyrimidin-4-yl)-1H-pyrazol-1-yl)-3-cyclobutylpropanenitrile]
N#CCC(C1CCC1)n1cc(-c2ccnc(Nc3ccc(N4CCCCC4=O)cc3)n2)cn1 (racemic) [Example 174, 3-cyclobutyl-3-(4-(2-(4-(2-oxopiperidin-1-yl)phenylamino)pyrimidin-4-yl)-1H-pyrazol-1-yl)propanenitrile]
N#CCC(C1CCC1)n1cc(-c2ccnc(Nc3ccc(N4CCOCC4=O)cc3)n2)cn1 (racemic) [Example 175, 3-cyclobutyl-3-(4-(2-(4-(3-oxomorpholino)phenylamino)pyrimidin-4-yl)-1H-pyrazol-1-yl)propanenitrile]
N#CCC(C1CCC1)n1cc(-c2ccnc(Nc3cccc(-c4cnco4)c3)n2)cn1 (racemic) [Example 176, 3-cyclobutyl-3-(4-(2-(3-(oxazol-5-yl)phenylamino)pyrimidin-4-yl)-1H-pyrazol-1-yl)propanenitrile]
N#CCC(C1CC1)n1cc(-c2ccnc(Nc3ccc(N4CCOCC4)cc3)n2)cn1 (racemic) [Example 177, 3-cyclopropyl-3-(4-(2-(4-morpholinophenylamino)pyrimidin-4-yl)-1H-pyrazol-1-yl)propanenitrile]
N#CCC(C1CC1)n1cc(-c2ccnc(Nc3ccc(-n4cccn4)cc3)n2)cn1 (racemic) [Example 178, 3-(4-(2-(4-(1H-pyrazol-1-yl)phenylamino)pyrimidin-4-yl)-1H-pyrazol-1-yl)-3-cyclopropylpropanenitrile]
N#CCC(C1CC1)n1cc(-c2ccnc(Nc3ccc(N4CCCCC4=O)cc3)n2)cn1 (racemic) [Example 179, 3-cyclopropyl-3-(4-(2-(4-(2-oxopiperidin-1-yl)phenylamino)pyrimidin-4-yl)-1H-pyrazol-1-yl)propanenitrile]
N#CCC(C1CC1)n1cc(-c2ccnc(Nc3ccc(N4CCOCC4=O)cc3)n2)cn1 (racemic) [Example 180, 3-cyclopropyl-3-(4-(2-(4-(3-oxomorpholino)phenylamino)pyrimidin-4-yl)-1H-pyrazol-1-yl)propanenitrile]
N#CCC(C1CC1)n1cc(-c2ccnc(Nc3cccc(-c4cnco4)c3)n2)cn1 (racemic) [Example 181, 3-cyclopropyl-3-(4-(2-(3-(oxazol-5-yl)phenylamino)pyrimidin-4-yl)-1H-pyrazol-1-yl)propanenitrile]
C[C@@H]1CN(S(=O)(=O)Nc2ccc(Nc3nccc(-c4cnn(C(CC#N)C5CCCC5)c4)n3)cc2)C[C@H](C)O1 (mixture of isomers) [Example 182, N-(4-(4-(1-(2-cyano-1-cyclopentylethyl)-1H-pyrazol-4-yl)pyrimidin-2-ylamino)phenyl)-(cis)-2,6-dimethylmorpholine-4-sulfonamide]
N#CCC(C1CCCC1)n1cc(-c2ccnc(Nc3ccc(NC(=O)c4ccccc4)cc3)n2)cn1 (racemic) [Example 183, N-(4-(4-(1-(2-cyano-1-cyclopentylethyl)-1H-pyrazol-4-yl)pyrimidin-2-ylamino)phenyl)benzamide]
CS(=O)(=O)CS(=O)(=O)Nc1ccc(Nc2nccc(-c3cnn(C(CC#N)C4CCCC4)c3)n2)cc1 (racemic) [Example 184, N-(4-(4-(1-(2-cyano-1-cyclopentylethyl)-1H-pyrazol-4-yl)pyrimidin-2-ylamino)phenyl)-1-(methylsulfonyl)methanesulfonamide]
N#CCC(C1CCCC1)n1cc(-c2ccnc(Nc3ccc(NC(=O)c4cc(F)cc(F)c4)cc3)n2)cn1 (racemic) [Example 185, N-(4-(4-(1-(2-cyano-1-cyclopentylethyl)-1H-pyrazol-4-yl)pyrimidin-2-ylamino)phenyl)-3,5-difluorobenzamide]
CN(C)S(=O)(=O)Nc1ccc(Nc2nccc(-c3cnn(C(CC#N)C4CCCC4)c3)n2)cc1 (racemic) [Example 186, NA-(4-(4-(1-(2-cyano-1-cyclopentylethyl)-1H-pyrazol-4-yl)pyrimidin-2-ylamino)phenyl)-N,N-dimethylsulfamide]
Cc1cc(C(=O)Nc2ccc(Nc3nccc(-c4cnn(C(CC#N)C5CCCC5)c4)n3)cc2)no1 (racemic) [Example 187, N-(4-(4-(1-(2-cyano-1-cyclopentylethyl)-1H-pyrazol-4-yl)pyrimidin-2-ylamino)phenyl)-5-methylisoxazole-3-carboxamide]
N#CCC(C1CCCC1)n1cc(-c2ccnc(Nc3ccc(NC(=O)c4ccno4)cc3)n2)cn1 (racemic) [Example 188, N-(4-(4-(1-(2-cyano-1-cyclopentylethyl)-1H-pyrazol-4-yl)pyrimidin-2-ylamino)phenyl)isoxazole-5-carboxamide]
